Where two headings read alike, the source gives them in different places.
How the values were obtained:
Format in all cases: in vivo
mice [1] = test: psychostimulant activity (pharmacological tests in animals such as mice); conditions: similarly tested
Description: (§1) As has been indicated hereinabove the novel end products of this invention, i.e., the compounds of formula I and their pharmaceutically acceptable acid addition salts and the compounds of formula II-d and their pharmaceutically acceptable acid addition salts, are useful as psychostimulants. When administered, for example, orally, or animals such as mice they produce a direct-acting stimulant effect of long duration in single doses in amounts ranging from 0.03 mg/kg to 50 mg/kg. […] Exp. Path. and Pharm., Vol. 140, page 237). The compounds of this invention have psychostimulant effects qualitatively similar in many respect to those of imipramine and amphetamine which are wellknown for their therapeutic uses and properties.

dogs = test: blood pressure in dogs; conditions: 4 mg/kg i.v.
Description: (§2) In addition to their use as psychostimulants, the compounds of formulas I and II-d are also useful as analgesic agents. […] For example, 2-(2-benzoylphenyl)-2-imadazoline in dogs at 4 mg/kg i.v. produced an increase in blood pressure of 10 mm. Hg after 2 minutes followed by gradual increase to 25 mm. Hg.

animals = test: analgesic properties (pharmacological tests in animals); conditions: based on the pharmacological tests in animals
Description: as §2

[2] = system: effects of β-(3,4-dihydroxyphenyl)-α-alanine (DOPA) in mice; test: DOPA potentiation test in mice; conditions: Mus musculus, ip
Description: as §1

mice [3] = test: writhing test in mice (analgesic); conditions: p.o.
Description: as §2

[4] = system: ptosis induced by tetrabenzene in mice; test: prevention of ptosis induced by tetrabenzene (tetrabenazene) in mice; conditions: Mus musculus, po, read-out: dose that prevented the ptosis induced by tetrabenzene
Description: as §1

unanesthetized cat = unanesthetized cat test for muscle relaxants; conditions: p.o.
Description: as §2

[5] = system: hypothermia induced by reserpine in mice; test: reversal of hypothermia induced by reserpine in mice; conditions: Mus musculus, po, reserpine 10 mg/kg s.c., read-out: dose that reversed the hypothermia and hypometabolic effects induced by reserpine
Description: as §1

[6] = mice, i.p., read-out: dose that potentiated the effects of DOPA
[7] = comparison drugs, read-out: dose showing psychostimulant activity in the DOPA potentiation test

## COc1ccc(C2(O)c3ccccc3C3=NCCN32)cc1 (centres unmarked) [2,3-dihydro-5-hydroxy-5-(4-methoxyphenyl)-5H-imidazo[2,1-a]-isoindole]
Mice [1]
  psychostimulant test result relative to 2-(2-benzoylphenyl)-2-imidazoline: qualitatively similar to 2-(2-benzoylphenyl)-2-imidazoline

## OC1(c2ccc(Cl)cc2)c2ccccc2C2=NCCN21 (centres unmarked) [5-(4-chlorophenyl)-2,3-dihydro-5-hydroxy-5H-imidazo[2,1-a]-isoindole]
Mice [1]
  psychostimulant test result relative to 2-(2-benzoylphenyl)-2-imidazoline: qualitatively similar to 2-(2-benzoylphenyl)-2-imidazoline

## O=C(c1ccccc1)c1ccccc1C1=NCCN1 [Example 10, 2-(2-benzoylphenyl)-2-imidazoline]
dogs; after 2 minutes
  increase in blood pressure after 2 minutes: 10 mm. Hg
dogs; gradual increase after the first 2 minutes
  increase in blood pressure, following gradual increase: 25 mm. Hg
animals
  analgesic properties relative to phenylbutazone: can be likened to the analgesic properties of phenylbutazone
[2]; [6]
  minimal effective dose: 6.25 mg/kg
Mice [3]
  dose with marked activity in the writhing test: 30.8 mg/kg
[4]
  minimal effective dose: 0.06 mg/kg
Unanesthetized cat
  dose active in the unanesthetized cat test for muscle relaxants: 2.5 mg/kg

## COC1(c2ccccc2)c2ccccc2C2=NCCN21 (centres unmarked) [Example 19, 2,3-dihydro-5-methoxy-5-phenyl-5H-imidazo[2,1-a]isoindole]
Mice [1]
  psychostimulant test result relative to 2-(2-benzoylphenyl)-2-imidazoline: qualitatively similar to 2-(2-benzoylphenyl)-2-imidazoline

## OC1(c2ccccc2)c2ccccc2C2=NCCCCN21 (centres unmarked) [Example 21, 2,3,4,5-tetrahydro-7-hydroxy-7-phenyl-7H-diazepino-[2,1-a]isoindole]
[2]; [6]
  minimal effective dose: 7.5 mg/kg
[5]
  minimal effective dose: 25 mg/kg

## CC(N)Cc1ccccc1 (centres unmarked) [amphetamine, reference compound]
[2]; [7]
  minimal effective dose: 1 mg/kg

## CN(C)CCCN1c2ccccc2CCc2ccccc21 [imipramine, reference compound]
[2]; [7]
  minimal effective dose: 10 mg/kg

From US4018765A, “Process for the preparation of certain hydroperoxy derivatives” (Hoffmann-La Roche Inc., priority 1975, dated 1977)
